Assay results as given in patent EP1105136B1, “METHOD FOR TREATING OCULAR NEOVASCULAR DISEASES” (Novartis AG, priority 1998, dated 2000).

Assays:
[1] = target: T1, c-Kit (Homo sapiens, UniProt P10721); experiment: cellular autophosphorylation assay in transfected Chinese hamster ovary cells; assay type: cell-based; conditions: Chinese hamster ovary cells transfected with RTK gene
T1 construct: expressed in transfected cells; host or cells: Chinese hamster ovary cells
Description: (§1) In vivo activity requires drugs to enter cells and therefore agents are tested in cellular autophosphorylation assays, using Chinese hamster ovary cells transfected with one of several RTK genes.

[2] = tested on: PDGF receptors; experiment: as above; assay type: cell-based; conditions: Chinese hamster ovary cells transfected with RTK gene
Description: as §1

[3] = tested on: VEGF receptors; experiment: as above; assay type: cell-based; conditions: Chinese hamster ovary cells transfected with RTK gene
Description: as §1

[4] = tested on: retinal vessels in adult mice; experiment: effect on retinal vessels in adult mice; assay type: in vivo, C57BL6J mice; conditions: 50 mg/kg/day
[5] = target: T2, insulin receptor (Homo sapiens, UniProt P06213); experiment: cellular autophosphorylation assay in transfected Chinese hamster ovary cells; assay type: cell-based; conditions: Chinese hamster ovary cells transfected with RTK gene
T2 construct: expressed in transfected cells; host or cells: Chinese hamster ovary cells

[6] = tested on: retinal neovascularization in mice with ischemic retinopathy; experiment: retinal neovascularization in mice with oxygen-induced ischemic retinopathy; assay type: in vivo, C57/BL6J mice
[7] = target: c-erbB2 (Homo sapiens, UniProt P04626); experiment: cellular autophosphorylation assay in transfected Chinese hamster ovary cells; assay type: cell-based; conditions: Chinese hamster ovary cells transfected with RTK gene
[8] = tested on: choroidal neovascularization; experiment: laser-induced choroidal neovascularization in mice; conditions: 50 mg/kg/day by gavage, two weeks after laser
[9] = target: Flk-1 (Mus musculus, UniProt P35918); conditions: mouse versus human VEGF receptor 2
[10] = tested on: retinal vascular development; experiment: retinal vascular development in neonatal mice; assay type: in vivo, C57/BL6J mice
Description: Litters of newborn C57/BL6J mice are divided into treatment and control groups which received daily subcutaneous injections of 10 mg/kg of drug or vehicle, respectively. At P7 or P10, mice are anesthetized with ether, and perfused with 1 ml of phosphate-buffered saline containing 50 mg/ml of fluorescein-labeled dextran (2x10^6 average mw, Sigma, St. Louis, MO).. The eyes are removed and fixed for 1 hour in 10% phosphate-buffered formalin. The cornea and lens are removed and the entire retina is carefully dissected from the eyecup, radially cut from the edge of the retina to the equator in all 4 quadrants, and flat-mounted in Aquamount. with photoreceptors facing upward.

[11] = P17 mice, 2.5 mg/kg twice a day
[12] = P17 mice, 25 mg/kg twice a day, gavage, 5 days

c-erbB2, sequence (P04626 23-1255): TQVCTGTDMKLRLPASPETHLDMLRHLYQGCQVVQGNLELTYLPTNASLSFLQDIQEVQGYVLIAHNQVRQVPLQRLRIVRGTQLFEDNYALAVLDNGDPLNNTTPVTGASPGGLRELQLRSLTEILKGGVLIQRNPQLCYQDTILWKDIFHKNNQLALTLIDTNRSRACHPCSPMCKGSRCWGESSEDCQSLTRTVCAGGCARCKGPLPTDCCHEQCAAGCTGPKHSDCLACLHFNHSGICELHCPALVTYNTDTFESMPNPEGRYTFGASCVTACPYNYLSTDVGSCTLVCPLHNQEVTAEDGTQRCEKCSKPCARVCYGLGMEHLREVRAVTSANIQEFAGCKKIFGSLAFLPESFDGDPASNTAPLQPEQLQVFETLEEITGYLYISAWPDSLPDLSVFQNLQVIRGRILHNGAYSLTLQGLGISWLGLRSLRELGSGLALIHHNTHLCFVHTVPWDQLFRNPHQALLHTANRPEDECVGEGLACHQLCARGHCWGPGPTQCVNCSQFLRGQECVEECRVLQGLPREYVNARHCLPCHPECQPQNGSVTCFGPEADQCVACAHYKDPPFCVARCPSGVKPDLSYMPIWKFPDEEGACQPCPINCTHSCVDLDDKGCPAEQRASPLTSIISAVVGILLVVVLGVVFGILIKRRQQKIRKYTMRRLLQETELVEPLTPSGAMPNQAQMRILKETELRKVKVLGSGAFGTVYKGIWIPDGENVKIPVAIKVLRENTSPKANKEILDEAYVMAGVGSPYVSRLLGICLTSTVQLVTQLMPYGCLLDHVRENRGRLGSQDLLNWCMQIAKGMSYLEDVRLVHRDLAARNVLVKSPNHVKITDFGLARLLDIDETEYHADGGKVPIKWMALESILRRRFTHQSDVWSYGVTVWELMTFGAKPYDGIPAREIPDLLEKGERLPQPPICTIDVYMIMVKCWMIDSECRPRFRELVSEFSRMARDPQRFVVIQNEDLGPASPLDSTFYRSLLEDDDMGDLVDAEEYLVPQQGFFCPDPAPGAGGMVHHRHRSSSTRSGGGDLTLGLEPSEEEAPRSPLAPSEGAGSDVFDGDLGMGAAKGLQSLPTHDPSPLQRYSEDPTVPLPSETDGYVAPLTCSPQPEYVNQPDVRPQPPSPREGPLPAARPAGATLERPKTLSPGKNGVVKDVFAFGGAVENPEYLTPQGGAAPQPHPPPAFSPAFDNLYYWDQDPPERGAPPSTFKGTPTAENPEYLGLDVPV
T2 sequence (P06213 28-1382, species assumed): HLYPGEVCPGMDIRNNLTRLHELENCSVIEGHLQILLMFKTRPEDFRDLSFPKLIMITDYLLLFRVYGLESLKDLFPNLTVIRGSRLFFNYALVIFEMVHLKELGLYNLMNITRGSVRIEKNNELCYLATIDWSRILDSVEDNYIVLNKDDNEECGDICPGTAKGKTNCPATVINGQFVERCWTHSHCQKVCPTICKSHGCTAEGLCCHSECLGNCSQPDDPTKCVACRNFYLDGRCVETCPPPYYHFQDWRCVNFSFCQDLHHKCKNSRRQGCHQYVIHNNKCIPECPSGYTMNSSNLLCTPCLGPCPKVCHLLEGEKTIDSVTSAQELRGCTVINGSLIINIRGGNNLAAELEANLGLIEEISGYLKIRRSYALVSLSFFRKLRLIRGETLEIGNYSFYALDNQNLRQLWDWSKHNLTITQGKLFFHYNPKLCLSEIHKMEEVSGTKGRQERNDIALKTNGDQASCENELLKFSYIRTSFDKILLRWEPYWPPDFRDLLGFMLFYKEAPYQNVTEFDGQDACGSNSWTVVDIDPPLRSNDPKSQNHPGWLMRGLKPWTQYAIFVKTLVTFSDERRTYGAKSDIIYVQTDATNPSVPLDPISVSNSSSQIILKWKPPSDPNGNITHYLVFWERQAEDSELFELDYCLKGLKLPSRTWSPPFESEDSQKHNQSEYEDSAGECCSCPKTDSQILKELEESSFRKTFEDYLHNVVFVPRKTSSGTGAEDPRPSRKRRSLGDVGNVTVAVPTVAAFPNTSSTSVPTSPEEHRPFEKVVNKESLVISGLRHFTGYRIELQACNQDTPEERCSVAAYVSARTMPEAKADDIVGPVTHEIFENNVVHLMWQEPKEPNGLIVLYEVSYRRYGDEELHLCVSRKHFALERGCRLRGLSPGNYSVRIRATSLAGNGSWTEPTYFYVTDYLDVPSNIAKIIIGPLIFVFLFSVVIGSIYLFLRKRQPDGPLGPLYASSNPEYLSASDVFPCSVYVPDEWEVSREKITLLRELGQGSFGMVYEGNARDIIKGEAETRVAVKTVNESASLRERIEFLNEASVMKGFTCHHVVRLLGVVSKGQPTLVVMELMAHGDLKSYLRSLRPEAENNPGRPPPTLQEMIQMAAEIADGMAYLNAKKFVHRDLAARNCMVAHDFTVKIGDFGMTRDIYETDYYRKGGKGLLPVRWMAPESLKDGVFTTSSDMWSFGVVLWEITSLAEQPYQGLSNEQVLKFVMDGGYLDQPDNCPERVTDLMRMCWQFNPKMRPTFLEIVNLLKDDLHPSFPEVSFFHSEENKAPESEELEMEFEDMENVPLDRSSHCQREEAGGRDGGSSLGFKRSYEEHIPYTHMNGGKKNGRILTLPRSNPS
Flk-1, sequence (P35918 832-1160 limits assumed): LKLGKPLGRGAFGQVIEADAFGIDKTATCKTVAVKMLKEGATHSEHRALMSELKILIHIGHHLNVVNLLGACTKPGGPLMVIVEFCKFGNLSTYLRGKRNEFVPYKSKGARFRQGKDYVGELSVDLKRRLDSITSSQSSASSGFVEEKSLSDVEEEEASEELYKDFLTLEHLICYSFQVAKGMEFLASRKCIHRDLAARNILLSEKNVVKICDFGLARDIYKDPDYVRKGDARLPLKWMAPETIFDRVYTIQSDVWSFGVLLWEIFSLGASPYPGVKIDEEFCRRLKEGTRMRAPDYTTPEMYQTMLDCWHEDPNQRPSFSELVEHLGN
T1 sequence (P10721 26-976): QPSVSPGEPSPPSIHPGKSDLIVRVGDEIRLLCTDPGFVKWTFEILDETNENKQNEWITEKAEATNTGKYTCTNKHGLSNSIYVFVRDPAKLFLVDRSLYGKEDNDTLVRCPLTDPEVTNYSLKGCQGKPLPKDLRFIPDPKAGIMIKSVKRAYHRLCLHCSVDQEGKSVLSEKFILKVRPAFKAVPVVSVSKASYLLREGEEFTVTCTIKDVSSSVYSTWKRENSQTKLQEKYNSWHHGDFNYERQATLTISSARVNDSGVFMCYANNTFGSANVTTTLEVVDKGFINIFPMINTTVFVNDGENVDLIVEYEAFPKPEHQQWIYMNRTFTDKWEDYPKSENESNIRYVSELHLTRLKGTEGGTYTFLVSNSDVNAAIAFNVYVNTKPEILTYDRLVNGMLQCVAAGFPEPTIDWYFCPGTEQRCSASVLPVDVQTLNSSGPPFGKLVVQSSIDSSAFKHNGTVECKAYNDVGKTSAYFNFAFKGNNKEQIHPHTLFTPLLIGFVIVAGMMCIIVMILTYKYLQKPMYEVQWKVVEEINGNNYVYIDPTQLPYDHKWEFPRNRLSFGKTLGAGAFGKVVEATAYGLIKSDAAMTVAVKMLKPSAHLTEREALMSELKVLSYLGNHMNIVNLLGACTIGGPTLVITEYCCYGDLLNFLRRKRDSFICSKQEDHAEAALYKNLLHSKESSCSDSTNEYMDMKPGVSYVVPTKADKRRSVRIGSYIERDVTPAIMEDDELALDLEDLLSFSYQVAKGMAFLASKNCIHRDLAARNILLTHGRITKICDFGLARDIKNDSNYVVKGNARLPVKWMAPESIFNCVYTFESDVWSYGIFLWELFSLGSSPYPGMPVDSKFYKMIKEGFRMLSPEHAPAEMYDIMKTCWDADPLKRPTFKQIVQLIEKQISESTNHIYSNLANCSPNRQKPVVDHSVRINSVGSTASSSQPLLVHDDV

Row | autophosphorylation [1] | total area of endothelial staining in the retina or the appearance of retinal vessels compared to vehicle-treated mice [4] | autophosphorylation [5] | autophosphorylation [7] | overlying retinal vessels [8] | less potent as an inhibitor of mouse VEGF receptor 2 compared to the human receptor [9] | Compound | autophosphorylation [2] | autophosphorylation [3] | staining in the inner nuclear layer ([6]; P17 mice, 0.25 mg/kg) | total endothelial staining in the retina ([6]; P17 mice, 0.25 mg/kg) | endothelial cell staining in the retina [6, 11] | endothelial staining in the inner nuclear layer [6, 11] | endothelial cell staining in the inner nuclear layer and outer plexiform layer (deep capillary bed) ([6]; P17 mice, 25 mg/kg twice a day) | endothelial cell staining within the retina [6, 12] | neovascularization (endothelial cells on the surface of the retina) [6, 12] | choroidal neovascularization at the site of each laser-induced rupture of Bruch's membrane [8] | integrated area of lectin staining per lesion ([8]; n = 5) | extension of retinal vessels ([10]; P7, injections of 10 mg/kg starting on P0) | extension of the superficial capillary bed ([10]; P10, injections of 10 mg/kg starting on P0) | endothelial staining in the retina ([6]; dose comparable to the highest dose of CGP 79787D)
1 | inhibits | no difference | poor inhibitor | poor inhibitor | appeared normal | about 10 fold | Clc1ccc(Nc2nnc(Cc3ccncc3)c3ccccc23)cc1 [CGP 79787D] | inhibits | inhibits | no identifiable decrease | decreased total endothelial staining in the retina that is not statistically significant | significantly less than vehicle-treated controls | some decrease | striking absence | dramatic decrease | complete inhibition | very little if any | 0.01124±0.001483 mm^2 | only extended about half way to the periphery | has not yet reached the edge of the retina | –
2 | – | – | – | – | – | – | O=c1c(-c2ccc(O)cc2)coc2cc(O)cc(O)c12 [Genistein, 4', 5,7-trihydroxyisoflavone, reference compound] | – | – | – | – | – | – | – | – | – | – | – | – | – | no significant decrease
